Like-named read-outs stand apart in the source and are kept apart here.
Assays:
[1] = test system: Staphylococcus aureus ATCC 6538; assay: Antimicrobial activity, MIC determination; format: cell-based; conditions: Staphylococcus aureus, ATCC6538, 24 h
Experimental: (§1) The in vitro antimicrobial activity of the compounds was evaluated by determining the minimum inhibitory concentration (MIC) against the Gram-positive microorganisms Staphylococcus aureus ATCC 6538 (S. aureus) and Bacillus subtilis ATCC 6633 (B. subtilis) and the Gram-negative microorganism Xanthomonas campestris ATCC 1395 (X. campestris). The affinity of the compounds for bovine serum albumin (BSA) and human serum albumin (HSA) was studied by fluorescence emission spectroscopy, and the corresponding binding constants were determined. Furthermore, the interaction of the compounds with calf-thymus DNA (CT DNA) was investigated to determine the possible mode of interaction by the following methods: (i) UV–vis spectroscopy (where the DNA-binding constants of the complexes (Kb) were also determined), (ii) DNA-viscosity measurements, (iii) cyclic voltammetry and (iv) competitive DNA-binding studies with the classic intercalator ethidium bromide (EB) performed by fluorescence emission spectroscopy.
(§2) Three bacterial strains, one Gram(−) (X. campestris) and two Gram(+) (S. aureus and B. subtilis), were used in order to test the antimicrobial activity of the compounds.
(§3) The antimicrobial activity of the compounds was evaluated b y determining their respective MIC values towards one Gram–( –) (Xanthomonas campestris ATCC 1395 (X. campestris)) and two Gram–(+) (Staphylococcus aureus ATCC 6538 (S. aureus) and Bacillus subtilis ATCC 6633 (B. subtilis)) bacterial species. Cultures of these microbial strains were grown on a rich selective agar medium and stored at 4°C. The selective media used were Nutrient Agar or Broth for B. subtilis and S. aureus, and Yeast Mold Agar or Broth for X. campestris . Cells picked from the surface of the stored cultures were used to initiate liquid pre–cultures of the same selective medium at an initial turbidity of roughl y 1 McFarland unit. Pre–cultures were incubated for 24 h in a rotar y sh aking incubator and subsequently the y were used to inoculate the test cultures used for the determination of MIC at an initial turbidity of 0.5 McFarland units. The test cultures consisted of Mueller–Hinton broth (Deben Diagnostics Ltd) containing different concentrations of the compounds. Different concentrations were achieved as follows: the compounds were freshly dissolved in DMSO to a concentration of 1 mg/mL and they were diluted with DMSO, using the method of progressive double dilution. Therefore, working solutions with decreasing concentrations of the compounds under investigation were achieved. The working solutions were subsequently diluted to the final desired concentration b y addition to the growth medium at a proportion of 2:98. MIC values were determined as the lowest concentrations of the tested compounds that inhibited visible growth of each respective organism after a 24–h incubation [ S1]. Bacterial growth was determined b y measuring the turbidit y of appropriatel y diluted cultures at 600 nm with reference to equall y diluted sterile growth medium and the inhibition achieved was calculated b y comparing the turbidit y of each culture to the average of the turbidit y of three non–inhibited cultures. All test cultures were grown in triplicates and for the determination of MIC, growth had to be inhibited in at least two cultures of the triplicate. In cubation temperatur e at all stages was 37°C ex cept for X. campestris t h at was cultivated at 28°C [S2]. […]
(§4) The fluorescence spectra of the compounds were recorded under the same experimental conditions and presented a low–intensity emission band in the region 405–410 nm .

[2] = test system: Xanthomonas campestris ATCC 1395; assay: Antimicrobial activity, MIC determination; format: cell-based; conditions: Xanthomonas campestris, ATCC1395, 24 h
Experimental: as §1, §2, §3, §4

[3] = test system: Bacillus subtilis ATCC 6633; assay: Antimicrobial activity, MIC determination; format: cell-based; conditions: Bacillus subtilis, ATCC6633, 24 h
Experimental: as §1, §2, §3, §4

[4] = test system: EB–DNA adduct (CT DNA); assay: Competitive study with EB (EB–DNA fluorescence quenching); format: binding, calf
Experimental: Ethidium bromide is a typical marker of intercalation because it can intercalate between adjacent DNA bases with its planar phenanthridine ring.
The fluorescence emission spectra of the EB–DNA adduct ([EB] = 20 μM, [DNA] = 26 μM) in the absence and presence of the compounds were recorded at increasing amounts of the respective compounds. […] As a conclusion, an intercalative interaction of the complexes with CT DNA can be proposed.
The values of the Stern–Volmer constants (Ksv) for the compounds were calculated using the linear Stern–Volmer equation (Equation (S2)) and were of the order of 10^5 M^−1 (Table 8), indicating tight binding of the complexes with DNA [61]. The Ksv values for the complexes are in the range found for a number of metal(II)–quinolone complexes, and complex 12 presents the highest Ksv value (Ksv = 7.25(±0.30) × 10^5 M^−1) among the compounds studied. In addition, the EB–DNA quenching constants (kq) for the compounds were calculated with Equation (S3), assuming τo = 23 ns as the fluorescence lifetime. The values of kq (Table 8) are much higher than the value of 10^10 M^−1s^−1, indicating a static mechanism of EB–DNA fluorescence quenching induced by the compounds, which can result from the formation of a new adduct apparently consisting of each complex and DNA [61].
In order to determine and confirm the DNA–binding mode of the compounds, a competitive study with EB as an intercalating marker is performed b y fluorescence emission spectroscopy.
Therefo re, the E B–displacing abilit y of the compounds from its EB –DN A conjugate was ex amined.
The DNA–EB adduct was prepared b y addition of 20 μM EB and 26 μM CT DNA in buffer solution (150 mM NaCl and 15 mM trisodium citrate at pH 7.0). The potential intercalation of the compounds between the DNA–bases was studied by the addition of a certain amount of the compound solution into the EB–DNA adduct solution. The influence of the compounds on the EB – DNA solution was monitored through the changes of the fluorescence emission spectra at excitation […]
wavelen gth (λex ) at 540 nm [S3]. […]
room temperature in solution or in the presence of DNA, under the same experimental conditions (λex = 540 nm). Bearing t hat in mind, the observed quenching of the EB–DNA solution is evidentl y associated to the displacement of EB from its EB–DNA adduct.
The quenching effici ency (KSV) for each compound was assessed according to the Stern – Volmer equation: Io =1+ k τ [Q] = 1+ K [Q], (eq. S2) [S3] where I0 and I = the fluorescence […]
emission intensities of EB–DNA in the absence and presence of the quencher, respectivel y, [Q] = the concentration of the quencher (i.e. compounds). KSV is obtained from t he Stern–Volmer plots b y the slope of the diagram I0/ I versus [Q]. Taking τ0 = 23 ns as the fluorescence lifetime of the EB– DNA s ystem [S5], the EB –DNA quenching constants (k q) of the compounds can be determined accordin g to eq.S3: K SV = kqτo . […]
[S2] Irgi, E.P.; Geromichalos, G.D.; Balala, S.; Kljun, J.; Kalogiannis, S.; Papadopoulos, A.; Turel, I.; Psomas, G. Cobalt(II) complexes with quinolone antimicrobial drug oxolinic acid: […]
[ S 5] Heller, D.P.; Greenstock, C.L. Fluorescence lifetime analysis of DNA intercalated ethidium bromide and quenching by free d ye. Biophys. Chem . 1994, 50, 305–312.

[5] = target: T1, bovine serum albumin (BSA) (Bos taurus, UniProt P02769); assay: Albumin binding by tryptophan fluorescence emission quenching
T1 construct: purchased
T1 sequence (P02769 25-607): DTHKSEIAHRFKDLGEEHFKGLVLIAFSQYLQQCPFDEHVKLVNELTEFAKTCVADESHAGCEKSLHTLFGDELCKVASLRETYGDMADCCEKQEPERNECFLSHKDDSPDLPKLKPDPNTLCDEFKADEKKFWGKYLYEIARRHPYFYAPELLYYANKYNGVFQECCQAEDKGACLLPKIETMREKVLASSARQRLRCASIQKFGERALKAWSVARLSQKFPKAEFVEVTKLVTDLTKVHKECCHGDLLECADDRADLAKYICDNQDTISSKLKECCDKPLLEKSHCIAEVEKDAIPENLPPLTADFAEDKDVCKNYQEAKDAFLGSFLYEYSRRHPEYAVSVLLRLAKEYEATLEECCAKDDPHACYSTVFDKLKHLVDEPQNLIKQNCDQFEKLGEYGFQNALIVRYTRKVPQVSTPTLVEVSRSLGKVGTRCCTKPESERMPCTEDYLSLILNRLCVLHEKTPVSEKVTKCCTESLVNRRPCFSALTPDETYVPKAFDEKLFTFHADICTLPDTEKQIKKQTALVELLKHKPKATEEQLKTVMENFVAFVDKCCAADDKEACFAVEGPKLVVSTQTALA
Experimental: (§5) Serum albumins (Sas) are the most abundant serum proteins and play a role in the circulatory system, primarily in the transport of drugs and other bioactive small molecules through the bloodstream.
(§6) The SA-quenching constants (kq) for the compounds (Table 5) were calculated with the Stern–Volmer quenching equation (Equations (S2) and (S3)).
(§7) Albumin-binding constants (K) were calculated using the Scatchard equation (Equation (S4)). […]
(§8) S2. Interaction with serum albumins
(§9) The albumin–binding study for the compounds was carried out b y fluorescence emission

[6] = target: T2, human serum albumin (HSA) (Homo sapiens, UniProt P02768); assay: as above
T2 construct: purchased
T2 sequence (P02768 25-609): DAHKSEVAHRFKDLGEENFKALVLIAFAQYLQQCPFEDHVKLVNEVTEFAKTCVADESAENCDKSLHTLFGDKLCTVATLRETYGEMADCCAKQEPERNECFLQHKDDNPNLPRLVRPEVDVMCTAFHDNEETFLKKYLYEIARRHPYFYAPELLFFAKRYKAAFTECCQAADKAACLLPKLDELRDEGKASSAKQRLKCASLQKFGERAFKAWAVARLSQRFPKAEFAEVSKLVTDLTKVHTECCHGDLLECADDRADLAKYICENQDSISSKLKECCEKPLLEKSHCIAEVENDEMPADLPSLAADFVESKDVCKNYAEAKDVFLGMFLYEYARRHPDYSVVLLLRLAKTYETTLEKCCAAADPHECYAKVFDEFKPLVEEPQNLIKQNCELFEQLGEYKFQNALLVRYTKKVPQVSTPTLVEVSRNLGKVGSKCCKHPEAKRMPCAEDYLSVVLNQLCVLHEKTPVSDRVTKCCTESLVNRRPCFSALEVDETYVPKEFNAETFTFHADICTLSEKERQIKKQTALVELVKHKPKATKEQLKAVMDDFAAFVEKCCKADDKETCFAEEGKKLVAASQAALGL
Experimental: as §5, §6, §7, §8, §9

[7] = read-out: MIC (values in parentheses)

`CN1CCN(c2c(F)cc3c(=O)c(C(=O)O)cn(CCF)c3c2F)CC1` [Fleroxacin, 6,8-difluoro-1-(2–fluoroethyl)-7-(4-methylpiperazin-1-yl)-4-oxoquinoline-3-carboxylic acid] gave an MIC [1] of 4 µg/mL, an MIC [1, 7] of 10.8 µM and an MIC [2] of 8 µg/mL. It also gave an MIC [2, 7] of 21.7 µM, an MIC [3] of 4 µg/mL and an MIC [3, 7] of 10.8 µM. For the same compound, the “Ksv, Stern–Volmer constant” value ([4]; EB–DNA adduct) was 4.64(±0.14) × 10^5 M^–1, the “ΔI/Io, percentage of EB–DNA fluorescence quenching” value ([4]; [EB] = 20 μM, [DNA] = 26 μM, λexc 540 nm, λem 592 nm) was 65.8% and the “EB–DNA relative fluorescence emission intensity, % of the initial (I/Io)” value ([4]; λemission = 592 nm, final value (up to), Figure S14) was 34.2%. The “kq, EB–DNA quenching constant” value ([4]; τo = 23 ns) was 2.02(±0.06) × 10^13 M^−1s^−1, the Kd [5] was 30.5 µM and the “kq(BSA), BSA-quenching constant” value ([5]; BSA 3 μM, buffer pH 7.0, λexc 295 nm, Stern–Volmer, τ0 = 10^–8 s) was 6.19(±0.23) × 10^12 M^−1s^−1. The “BSA fluorescence, % of the initial fluorescence intensity (I/Io)” value ([5]; λem,max = 342 nm, final value of titration (Figure S11)) was 47.5%, the Kd [6] was 15.2 µM and the “kq(HSA), HSA-quenching constant” value ([6]; HSA 3 μM, buffer pH 7.0, λexc 295 nm, Stern–Volmer, τ0 = 10^–8 s) was 2.69(±0.11) × 10^12 M^−1s^−1. For the same compound, the “HSA fluorescence, % of the initial fluorescence intensity (I/Io)” value ([6]; λem,max = 351 nm, final value of titration (Figure S10)) was 66.5%.
